Laboratory results: paper PMC5908839 (Scientific Reports, 2018)
pKd: −log10 of the molar value.

Target: T1, AioX (Pseudorhizobium banfieldiae, UniProt L0NML6)
T1 construct: 304 amino acid residues; His-tag removed; SeMet-labelled
T1 sequence (L0NML6 27-304): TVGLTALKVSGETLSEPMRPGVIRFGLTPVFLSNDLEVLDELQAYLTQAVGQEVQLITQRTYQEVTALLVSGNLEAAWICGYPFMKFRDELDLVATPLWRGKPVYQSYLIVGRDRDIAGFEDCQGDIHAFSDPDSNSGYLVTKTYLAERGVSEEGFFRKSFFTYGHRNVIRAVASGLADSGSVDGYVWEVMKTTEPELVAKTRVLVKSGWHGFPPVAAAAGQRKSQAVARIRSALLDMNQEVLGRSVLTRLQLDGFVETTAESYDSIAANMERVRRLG
Experiment: X-ray crystal structure ([…] Å; phosphate from the crystallisation conditions); no binding detected by ITC

O=P(O)(O)O [phosphate]
pKd: < 2.70
